Data from ChEMBL document CHEMBL3608254, “Discovery of novel triazolobenzazepinones as γ-secretase modulators with central Aβ42 lowering in rodents and rhesus monkeys” (Bioorg Med Chem Lett, 2015).
Activity calls are given as the source filed them. The calls are words filed in the database; no cut-off is given here.

Tests used:
[1] = Inhibition of gamma-secretase-mediated cleavage of NotchdeltaE in human HeLa cells expressing NotchdeltaE assessed as intracellular release of Notch intracellular domain (NICD)/N-terminal luciferase by luminescent method; assay type: cell-based
Gamma-secretase [2] = experiment: Inhibition of gamma-secretase in human SH-SY5Y cells expressing beta-APP C-terminal fragment SPA4CT assessed as decrease of amyloid beta-40 level by electrochemiluminescent method; assay type: cell-based
Gamma-secretase [3] = experiment: Inhibition of gamma-secretase in human SH-SY5Y cells expressing beta-APP C-terminal fragment SPA4CT assessed as decrease of amyloid beta-42 level by electrochemiluminescent method; assay type: cell-based
Mus musculus = experiment: Antialzheimer's disease activity in po dosed APP-YAC transgenic mouse assessed as reduction of amyloid beta-40/42 level in brain measured after 6 hrs; assay type: functional
Rattus norvegicus = experiment: Antialzheimer's disease activity in po dosed Sprague-Dawley rat assessed as reduction of amyloid beta-40/42 level in brain measured after 6 hrs; assay type: functional
[4] = Half life in rat liver microsomes; assay type: ADME
[5] = molecular target: Voltage-gated inwardly rectifying potassium channel KCNH2 (Homo sapiens, UniProt Q12809)
Description: Binding affinity to human ERG expressed in HEK cells by MK-499 radioligand displacement assay

[6] = molecular target: Sodium-dependent serotonin transporter (Homo sapiens, UniProt P31645); experiment: Inhibition of SERT (unknown origin)
Chain of Sodium-dependent serotonin transporter (P31645 whole entry, looked up): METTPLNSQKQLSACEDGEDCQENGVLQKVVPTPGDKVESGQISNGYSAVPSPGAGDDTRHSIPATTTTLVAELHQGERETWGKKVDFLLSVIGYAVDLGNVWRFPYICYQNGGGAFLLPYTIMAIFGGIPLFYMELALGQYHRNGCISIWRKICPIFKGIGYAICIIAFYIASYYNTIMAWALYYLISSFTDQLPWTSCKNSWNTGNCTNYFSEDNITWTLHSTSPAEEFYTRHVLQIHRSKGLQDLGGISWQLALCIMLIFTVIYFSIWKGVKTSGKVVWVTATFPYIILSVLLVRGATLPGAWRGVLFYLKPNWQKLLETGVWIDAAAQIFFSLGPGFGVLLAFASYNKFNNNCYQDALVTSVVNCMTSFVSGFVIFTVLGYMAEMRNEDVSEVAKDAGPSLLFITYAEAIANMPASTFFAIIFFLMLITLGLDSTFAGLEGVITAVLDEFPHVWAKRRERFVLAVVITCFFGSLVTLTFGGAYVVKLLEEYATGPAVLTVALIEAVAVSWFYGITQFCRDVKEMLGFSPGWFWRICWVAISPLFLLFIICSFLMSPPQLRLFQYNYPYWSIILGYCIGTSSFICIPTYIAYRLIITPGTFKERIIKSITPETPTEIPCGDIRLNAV

Chain of Voltage-gated inwardly rectifying potassium channel KCNH2 (Q12809 whole entry): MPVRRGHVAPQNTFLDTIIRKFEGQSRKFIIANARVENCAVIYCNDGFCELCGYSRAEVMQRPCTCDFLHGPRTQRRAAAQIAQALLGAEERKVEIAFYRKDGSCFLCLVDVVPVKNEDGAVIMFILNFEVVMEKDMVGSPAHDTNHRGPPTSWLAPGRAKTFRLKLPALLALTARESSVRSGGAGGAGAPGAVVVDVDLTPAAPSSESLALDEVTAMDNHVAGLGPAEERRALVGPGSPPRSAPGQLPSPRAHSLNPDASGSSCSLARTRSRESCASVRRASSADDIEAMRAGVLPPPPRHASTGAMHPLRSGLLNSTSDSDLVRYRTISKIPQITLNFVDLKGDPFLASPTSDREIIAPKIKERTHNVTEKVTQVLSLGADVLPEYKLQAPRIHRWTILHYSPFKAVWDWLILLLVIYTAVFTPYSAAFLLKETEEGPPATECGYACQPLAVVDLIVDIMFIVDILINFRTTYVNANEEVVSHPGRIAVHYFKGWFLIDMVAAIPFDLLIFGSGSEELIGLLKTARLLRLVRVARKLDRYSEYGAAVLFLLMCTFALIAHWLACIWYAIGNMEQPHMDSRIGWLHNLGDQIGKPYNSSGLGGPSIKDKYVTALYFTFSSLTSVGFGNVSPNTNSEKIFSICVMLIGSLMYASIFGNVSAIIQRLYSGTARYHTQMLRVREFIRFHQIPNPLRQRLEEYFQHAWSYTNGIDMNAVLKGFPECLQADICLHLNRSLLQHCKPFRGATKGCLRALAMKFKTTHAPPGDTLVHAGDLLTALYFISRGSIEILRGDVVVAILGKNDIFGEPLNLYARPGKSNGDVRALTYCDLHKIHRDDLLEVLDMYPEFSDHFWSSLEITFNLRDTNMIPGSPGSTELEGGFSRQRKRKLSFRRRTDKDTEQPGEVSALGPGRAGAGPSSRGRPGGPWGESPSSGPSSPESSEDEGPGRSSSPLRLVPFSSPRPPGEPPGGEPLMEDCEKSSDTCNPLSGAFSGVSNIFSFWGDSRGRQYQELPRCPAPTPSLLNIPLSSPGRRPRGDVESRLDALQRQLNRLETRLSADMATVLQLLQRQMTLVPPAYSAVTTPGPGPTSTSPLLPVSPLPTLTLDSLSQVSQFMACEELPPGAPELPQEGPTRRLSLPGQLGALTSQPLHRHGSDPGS

SMILES | IC50 [1] [nM] | IC50 (Gamma-secretase [2]) [nM] | IC50 (Gamma-secretase [3]) [nM] | half-life [4] [h] | inhibition [6] | Activity (Mus musculus) | Activity (Rattus norvegicus) | IC50 [5] [nM]
COc1cc(-c2cn(C3CCc4ccccc4N(CC(F)F)C3=O)nn2)ccc1-n1cnc(C)c1 (stereo not drawn) | > 50000 | 700 | 150 |  |  |  |  | 
COc1cc(-c2cn([C@H]3C[C@H](C)c4ccccc4N(CC(F)(F)F)C3=O)nn2)ccc1-n1cnc(C)c1 | 36600 | 170 | 40 | 1.2 |  | Active | Active | 6680
COc1cc(-c2cn(C3CC[C@@H]4CCCC[C@H]4N(Cc4ccccc4)C3=O)nn2)ccc1-n1cnc(C)c1 (stereo partly drawn) | > 50000 | 470 | 70 |  | inactive | Active | Active | 
COc1cc(-c2cn(C3CCc4ccccc4N(Cc4ccncc4)C3=O)nn2)ccc1-n1cnc(C)c1 (racemic) | > 50000 | 6750 | 1190 |  |  |  |  | 
COc1cc(-c2cn(C3CCc4ccccc4N(Cc4ccccc4)C3=O)nn2)ccc1-n1cnc(C)c1 (racemic) | > 50000 | 2010 | 240 |  |  |  |  | 
COc1cc(-c2cn(C3CCc4ccccc4N(CC4CC4)C3=O)nn2)ccc1-n1cnc(C)c1 (stereo not drawn) | 25600 | 3980 | 370 |  |  |  |  | 

Continued, in another order:

IC50 [1] [nM] | IC50 (Gamma-secretase [2]) [nM] | IC50 (Gamma-secretase [3]) [nM] | half-life [4] [h] | inhibition [6] | SMILES | Activity (Mus musculus) | Activity (Rattus norvegicus) | IC50 [5] [nM]
> 50000 | 70 | 30 |  |  | COc1cc(-c2cn(C3CCc4c(ccc5ccccc45)N(CC(F)(F)F)C3=O)nn2)ccc1-n1cnc(C)c1 (stereo not drawn) | Active | Active | 
34100 | 190 | 40 |  |  | COc1cc(-c2cn(C3CCc4cc(F)ccc4N(CC(F)(F)F)C3=O)nn2)ccc1-n1cnc(C)c1 (stereo not drawn) | Active | Active | 2680
28400 | 240 | 60 |  |  | COc1cc(-c2cn(C3CSc4ccccc4N(CC(F)(F)F)C3=O)nn2)ccc1-n1cnc(C)c1 (stereo not drawn) | Active | Active | 4750
> 50000 | 150 | 40 |  |  | COc1cc(-c2cn(C3CCc4c(F)cc(F)cc4N(CC(F)(F)F)C3=O)nn2)ccc1-n1cnc(C)c1 (stereo not drawn) | Active | Active | 
> 50000 | 50 | 10 |  |  | COc1cc(-c2cn(C3CCc4c(ccc(Br)c4F)N(CC(F)(F)F)C3=O)nn2)ccc1-n1cnc(C)c1 (stereo not drawn) | Active | Active | 530
